Patent US8202865B2, “Oxadiazole derivatives” (Merck Serono SA, priority 2007, dated 2012)
Structures can show the parent of a compound that is named as a salt.

Legend:
S1P3 = target: T1, S1P3 (Homo sapiens, UniProt Q99500); experiment: 35S-GTPγS binding, S1P3 membranes; type: biochemical; details: membranes from CHO cells expressing S1P3; 60 min 30° C.
T1 construct: expressed in transfected cells; host or cells: CHO cells (membranes)
In short: (§1)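 CHO-cell membranes expressing S1P1 or S1P3 (1-10 μg) incubated with compounds in 20 mM HEPES pH 7.4, 10 mM MgCl2, 140 mM NaCl, saponin, 0.2% BSA, 1.7 μM GDP and [35S]-GTPγS (20 μl of 1.5 nM added), 60 min at 30° C. Bound radioactivity expressed as % of S1P activation.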

S1P1 [1] = target: T2, S1P1 (Homo sapiens, UniProt P21453); experiment: 35S-GTPγS binding, S1P1 membranes; type: biochemical; details: membranes from CHO cells expressing S1P1; 60 min 30° C.
T2 construct: expressed in transfected cells; host or cells: CHO cells (membranes)
T2 sequence (P21453 whole entry, species assumed): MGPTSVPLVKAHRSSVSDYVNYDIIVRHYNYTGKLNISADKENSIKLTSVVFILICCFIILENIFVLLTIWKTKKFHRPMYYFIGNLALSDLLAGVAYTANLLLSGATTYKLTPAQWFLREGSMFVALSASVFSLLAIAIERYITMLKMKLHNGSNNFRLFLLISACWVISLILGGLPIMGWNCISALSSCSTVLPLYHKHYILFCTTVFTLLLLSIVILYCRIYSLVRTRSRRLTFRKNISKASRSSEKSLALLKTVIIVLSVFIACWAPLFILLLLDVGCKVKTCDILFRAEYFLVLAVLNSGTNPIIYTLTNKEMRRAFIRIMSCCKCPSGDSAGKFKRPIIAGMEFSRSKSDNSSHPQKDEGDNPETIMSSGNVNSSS
In short: as §1

S1P1 [2] = target: T2, S1P1; experiment: Receptor binding assay, [33P]sphingosine 1-phosphate, membranes, WGA SPA beads; details: membranes from CHO cells expressing S1P1; 25 pM [33P]S1P; 60 min RT
In short: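 CHO-cell membranes expressing S1P1 incubated with 25 pM [33P]S1P in 50 mM HEPES pH 7.5, 5 mM MgCl2, 100 mM NaCl, 0.4% fatty acid-free BSA with WGA SPA beads for 60 min at RT. Bound radioactivity counted by scintillation proximity; specific binding defined using 1000-fold excess unlabeled S1P.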

T1 sequence (Q99500 whole entry, species assumed): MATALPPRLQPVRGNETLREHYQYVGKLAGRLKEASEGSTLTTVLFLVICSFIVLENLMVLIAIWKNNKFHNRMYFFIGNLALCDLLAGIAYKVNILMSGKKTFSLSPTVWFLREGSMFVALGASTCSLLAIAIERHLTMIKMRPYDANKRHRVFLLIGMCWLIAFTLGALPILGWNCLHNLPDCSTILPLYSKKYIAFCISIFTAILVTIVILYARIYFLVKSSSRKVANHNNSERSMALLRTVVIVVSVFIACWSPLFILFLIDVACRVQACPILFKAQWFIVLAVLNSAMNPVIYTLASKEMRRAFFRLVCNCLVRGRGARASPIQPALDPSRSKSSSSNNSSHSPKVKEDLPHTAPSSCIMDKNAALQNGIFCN

SMILES | EC50 (S1P3) [nM] | EC50 (S1P1 [1]) [nM] | Ki (S1P1 [2]) [nM]
COCc1cc(-c2nc(-c3cccc(S(N)(=O)=O)c3)no2)ccc1-c1ccccc1C [Example 170, 3-{5-[2-(methoxymethyl)-2′-methylbiphenyl-4-yl]-1,2,4-oxadiazol-3-yl}benzenesulfonamide] | 214 | 0.7 | 0.8
Cc1ccccc1-c1ccc(-c2nc(-c3ccc(C(N)=O)c(F)c3)no2)cc1C [Example 171, 4-[5-(2,2′-dimethylbiphenyl-4-yl)-1,2,4-oxadiazol-3-yl]-2-fluorobenzamide] | > 20000 | 19 | 39
COCc1cc(-c2nc(-c3ccc(C(=O)NCCNC(C)=O)c(F)c3)no2)ccc1-c1ccccc1C [Example 174, N-[2-(acetylamino)ethyl]-2-fluoro-4-{5-[2-(methoxymethyl)-2′-methylbiphenyl-4-yl]-1,2,4-oxadiazol-3-yl}benzamide] | 1420 | 17 | 3.4
COCc1cc(-c2nc(-c3ccc(C(=O)NCCc4nnn[nH]4)c(F)c3)no2)ccc1-c1ccccc1C [Example 177, 2-fluoro-4-{5-[2-(methoxymethyl)-2′-methylbiphenyl-4-yl]-1,2,4-oxadiazol-3-yl}-N-[2-(1H-tetrazol-5-yl)ethyl]benzamide] | 1150 | 1.3 | 2
COCc1cc(-c2nc(-c3ccc(C(N)=O)cc3)no2)ccc1-c1ccccc1C [Example 178, 4-{5-[2-(methoxymethyl)-2′-methylbiphenyl-4-yl]-1,2,4-oxadiazol-3-yl}benzamide] | 141 | 4.8 | 1
COCc1cc(-c2nc(-c3ccc(C(N)=O)c(F)c3)no2)ccc1-c1ccccc1C [Example 179, 2-fluoro-4-{5-[2-(methoxymethyl)-2′-methylbiphenyl-4-yl]-1,2,4-oxadiazol-3-yl}benzamide] | 274 | 8 | 3
COCc1cc(-c2nc(-c3cccc(C(=O)NCCC#N)c3)no2)ccc1-c1ccccc1C [Example 183, N-(2-cyanoethyl)-3-{5-[2-(methoxymethyl)-2′-methylbiphenyl-4-yl]-1,2,4-oxadiazol-3-yl}benzamide] | 5600 | 2.4 | 2
COCc1cc(-c2nc(-c3cccc(C(=O)NCCNC(C)=O)c3)no2)ccc1-c1ccccc1C [Example 184, N-[2-(acetylamino)ethyl]-3-{5-[2-(methoxymethyl)-2′-methylbiphenyl-4-yl]-1,2,4-oxadiazol-3-yl}benzamide] | 4490 | 3.3 | 1
COCc1cc(-c2nc(-c3cccc(CN(C)CCO)c3)no2)ccc1-c1ccccc1C [Example 186, 2-[(3-{5-[2-(methoxymethyl)-2′-methylbiphenyl-4-yl]-1,2,4-oxadiazol-3-yl}benzyl)(methyl)amino]ethanol, Hydrochloride salt] | 1620 | 1.1 | 0.8
COCc1cc(-c2nc(-c3cccc(CO)c3)no2)ccc1-c1ccccc1C [Example 189, (3-{5-[2-(methoxymethyl)-2′-methylbiphenyl-4-yl]-1,2,4-oxadiazol-3-yl}phenyl)methanol] | 574 | 2.1 | 1
COCc1cc(-c2nc(-c3cccc(S(C)(=O)=O)c3)no2)ccc1-c1ccccc1C [Example 194, 5-[2-(methoxymethyl)-2′-methylbiphenyl-4-yl]-3-[3-(methylsulfonyl)phenyl]-1,2,4-oxadiazole] | 1720 | 1 | 1.6
